Key:
[1] = tested on: human foreskin microvascular endothelial cells (HFMVECs); test: ECIS of HFMVEC monolayers, thrombin stimulation; format: cell-based; settings: imatinib 10 μM, thrombin 1 U/mL
Method: (§1) For ECIS measurements, cells were trypsinized and seeded in 1:1 density on gelatine-coated ECIS arrays, each containing 8 wells with 10 gold electrodes/well (8 W10E, Applied Biophysics, Troy, N.Y., USA). Culture medium was refreshed 24 h after seeding, while experiments were performed 48 h after seeding. For pretreatment, designated pharmacological inhibitors or vector were dissolved in M199 supplemented with 1% HSA. After 90 min of pretreatment, thrombin was added directly to the cells for a final concentration of 1 U/mL. During stimulation impedance was measured at multiple frequencies to allow for calculation of resistance attributable to cell-cell adhesion (Rb) and resistance attributable to cell-matrix interaction (alpha). The absolute resistance was measured, while the relative resistance was calculated by normalization to the time point just before addition of the thrombin, to correct for baseline differences.

RhoA = test: G-LISA RhoA Activity Assay in HUVEC lysates; format: cell-based, human; settings: HUVECs; imatinib 10 μM; thrombin 1 U/mL
Method: After stimulation, cells were washed with ice-cold PBS and lysed with lysis buffer containing […] Tris/HCl pH 8.0, 0.15M NaCl, 0.09M KCl, 2 mM EDTA/NaOH pH 8.0, 5% Igepal, and 0.5% Triton X-100, further supplemented with PhosStop […] inhibitor (Roche Diagnostics, Mannheim, Germany), and Complete EDTA-free […] inhibitor (Roche Diagnostics). After centrifugation of the cell lysates, the supernatant was snap-frozen and stored at −80° C. Relative RhoA activity was determined with a G-LISA RhoA Activity Assay (Cytoskeleton Inc, Denver, Colo., USA), according to the manufacturers protocol.

[2] = tested on: human pulmonary microvascular endothelial cells (HPMVECs); test: ECIS of HPMVEC monolayers, thrombin stimulation; format: cell-based; settings: imatinib 10 μM, thrombin 1 U/mL
Method: as §1

[3] = tested on: human pulmonary microvascular endothelial cells (HPMVECs); test: HRP passage over HPMVEC monolayers, thrombin stimulation; format: cell-based; settings: imatinib 10 μM, thrombin 1 U/mL
Method: (§2) Endothelial barrier function was evaluated with horse radish peroxidase (HRP) passage and Electrical Cell-substrate Impedance Sensing (ECIS). For measurement of HRP passage, confluent cells were seeded in 1:1 density on 0.33 cm^2 Costar polycarbonate filters, pore-size 3.0 μm (Corning, Lowell, Mass., USA) and grown to confluence in 4 or 5 days, with change of culture medium every other day. For pretreatment, pharmacological inhibitors or vector were dissolved in M199 supplemented with 1% human serum albumin (HSA, Sanquin CLB), and after removal of culture medium, solutions were added to the upper compartment of the filters during 60 min. For stimulation, pretreatment medium was changed for 1% HSA/M199 containing designated inhibitors, HRP 5 μg/mL (Sigma Aldrich) and thrombin 1 U/mL. 1% HSA/M199 was added to the lower compartment. At indicated time points samples were taken from the lower compartment; HRP concentration in samples was detected by measuring chemoluminiscence after addition of TMB/E (Upstate/Millipore).

HUVECs [4] = test: HRP passage across thrombin-stimulated HUVEC monolayers on porous filters; format: cell-based, human; settings: for effect on thrombin-induced HRP passage: HUVECs
Method: as §2

HUVECs [5] = test: Immunofluorescence staining of VE-cadherin, β-catenin and F-actin in thrombin-stimulated HUVECs; format: cell-based, human
Method: Cells were seeded on glass coverslips coated with gelatine 1% and pretreated with glutaraldehyde 0.5% (Fluka, St. Gallen, Switzerland). Cells were seeded in 1:1 density and grown to confluence in 48-72 hours. For pretreatment, culture medium was changed to 1% HSA/M199, containing pharmacological inhibitors or vector. After 60 min of pretreatment, thrombin was added directly to the wells for a final concentration of 1 U/mL. At indicated time points, medium was removed and warm paraformaldehyde 2% (Sigma Aldrich) was added to the cells, while kept on ice for 15 min. Cells were permeabilized with Triton X-100 0.05% (Sigma Aldrich) in phosphate-buffered saline (PBS), and incubated overnight with primary antibodies for β-catenin (1:100), VE-cadherin (1:400) or Arg (1:150) in 0.1% HSA/PBS. Subsequently, cells were washed and incubated with FITC-labeled secondary antibodies (Invitrogen, Paisly, United Kingdom) and rhodamine/phalloidin (Invitrogen) for 1 h at room temperature. Cells were washed and sealed in Vectashield mounting medium containing DAPI (Vector Laboratories Inc., Burlingham, Calif., USA) for nuclear staining. Immunofluorescent imaging was performed with an Axiovert 200 Marianas™ inverted wide-field fluorescence microscope, using a 40× Zeiss air lens (NA 0.75) and a 63× Zeiss oil lens (NA 1.4). […]

HUVECs [6] = test: Electrical Cell-substrate Impedance Sensing (ECIS) of HUVEC monolayers, thrombin stimulation; format: cell-based, human
Method: as §1

[7] = HUVECs transfected with Arg siRNA, imatinib 10 μM, thrombin 1 U/mL
[8] = HUVECs, imatinib 10 μM, thrombin 1 U/mL

SMILES | thrombin-induced maximal drop in endothelial resistance [1] | thrombin-induced RhoA activity (RhoA) | maximal drop in endothelial resistance [2] | effects on Rb and alpha ([2]; compared with HUVECs) | thrombin-induced macromolecule passage [3] | HRP passage in Arg deficient cells, imatinib vs DMSO pretreatment (HUVECs [4]; [7]) | effect on thrombin-induced HRP passage (HUVECs [4]; thrombin 1 U/mL) | inhibition at 10 µM (HUVECs [4]; Homo sapiens, HUVEC, read-out: inhibition of thrombin-induced HRP passage) [%] | thrombin-induced loss of VE-cadherin and β-catenin from the membrane (HUVECs [5]; imatinib 10 μM, thrombin 30 min) | F-actin organization after thrombin (HUVECs [5]; imatinib pretreated, thrombin 15 min) | decrease in normalized resistance in Arg deficient cells, imatinib pretreatment (HUVECs [6]; [7]) | thrombin response in c-Abl deficient cells (HUVECs [6]; HUVECs transfected with c-Abl siRNA, imatinib 10 μM, thrombin 1 U/mL) | maximal drop in electrical resistance (HUVECs [6]; HUVECs, imatinib 10 μM, Y-27632 10 μM, thrombin 1 U/mL, FIGS. 2C and D) | maximal decrease in normalized Rb (cell-cell interaction) (HUVECs [6]; [8]) | thrombin-induced drop in cell-matrix interaction (alpha) (HUVECs [6]; [8]) | effect on thrombin-induced decrease in endothelial resistance (thrombin response, words) (HUVECs [6]; HUVECs, thrombin 1 U/mL) | maximal decrease in normalized resistance (HUVECs [6]; HUVECs, thrombin 1 U/mL, FIGS. 1B and 1C) | effect on thrombin-induced decrease in endothelial resistance (thrombin response, words) (HUVECs [6]; HUVECs, thrombin 1 U/mL, listed as Imatinib) | basal endothelial barrier function / basal endothelial resistance (ECIS) (HUVECs [6]; HUVECs, no thrombin)
Cc1ccc(NC(=O)c2ccc(CN3CCN(C)CC3)cc2)cc1Nc1nccc(-c2cccnc2)n1 [imatinib, 4-[(4-methyl-1-piperazinyl)methyl]-N-[4-methyl-3-[[(4-(3-pyridinyl)-2-pyrimidinyl]amino]-phenyl]benzamidemethane sulfonate] | attenuated | not affected | attenuated | Comparable effects | reduced | significantly lower | reduced | 35 to 44 | partly reversed | not organized in F-actin stress fibers | no additive effect | still attenuated | −0.44±0.02 | −0.87±0.03 | attenuation | reduced | −0.41±0.03 | attenuated | 
COc1cc2ncc(-c3ccccc3)nc2cc1OC [AG1296] |  |  |  |  |  |  |  |  |  |  |  |  |  |  |  | did not inhibit |  |  | improved
C[C@@H](N)[C@H]1CC[C@H](C(=O)Nc2ccncc2)CC1 [Y-27632] |  |  |  |  |  |  | reduced |  |  |  |  |  |  |  |  | reduced |  |  | 
